Earlier results on three compounds are cited in US10822400B2, “Dynamin 2 inhibitor for the treatment of Duchenne's muscular dystrophy” (UNIVERSITE DE STRASBOURG, priority 2015, dated 2020).

For one data set, the target named is T1, dynamin 2 (Homo sapiens, UniProt P50570).
T1 sequence (P50570 1-870): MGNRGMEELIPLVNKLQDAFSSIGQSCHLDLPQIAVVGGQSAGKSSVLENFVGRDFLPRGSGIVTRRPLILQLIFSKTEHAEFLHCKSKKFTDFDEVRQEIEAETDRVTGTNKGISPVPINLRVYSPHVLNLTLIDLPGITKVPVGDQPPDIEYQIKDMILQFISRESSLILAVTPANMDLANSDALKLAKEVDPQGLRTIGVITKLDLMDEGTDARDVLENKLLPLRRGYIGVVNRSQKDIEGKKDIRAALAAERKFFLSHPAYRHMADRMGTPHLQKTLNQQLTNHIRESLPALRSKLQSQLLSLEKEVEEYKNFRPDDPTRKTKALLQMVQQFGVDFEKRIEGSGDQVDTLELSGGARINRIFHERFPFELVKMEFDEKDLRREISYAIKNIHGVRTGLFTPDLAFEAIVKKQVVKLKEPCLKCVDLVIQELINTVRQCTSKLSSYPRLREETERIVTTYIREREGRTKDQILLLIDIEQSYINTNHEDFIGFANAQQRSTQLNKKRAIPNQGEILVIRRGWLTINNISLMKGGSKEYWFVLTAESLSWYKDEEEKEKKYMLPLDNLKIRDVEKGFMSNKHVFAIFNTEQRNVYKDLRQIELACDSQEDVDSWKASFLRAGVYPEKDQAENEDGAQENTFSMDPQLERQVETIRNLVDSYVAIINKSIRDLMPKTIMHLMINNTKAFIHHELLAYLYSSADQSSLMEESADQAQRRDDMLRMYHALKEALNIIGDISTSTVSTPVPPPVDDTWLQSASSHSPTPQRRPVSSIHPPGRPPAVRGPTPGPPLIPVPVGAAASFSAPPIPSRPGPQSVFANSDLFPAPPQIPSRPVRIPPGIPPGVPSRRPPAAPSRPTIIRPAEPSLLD
As to conditions: read-out: IC50 for inhibition of dynamin 2 (dynamin II).

In another data set the test system is mitochondrial division. To be noted: read-out: IC50 as mitochondrial division inhibitor.
Data set [1] concerns the target receptor-mediated and synaptic vesicle endocytosis. To be noted: read-out: IC50 for inhibition of receptor-mediated and synaptic vesicle endocytosis.

The IC50 is the concentration that inhibits the measured activity by half. For `O=C(NN=Cc1cc(O)c(O)cc1O)c1cc2ccccc2cc1O` [Hydroxy-Dynasore, 3-Hydroxy-N′-[(2,4,5-trihydroxyphenyl)methylidene]naphthalene-2-carbohydrazide], the half-maximal inhibitory concentration (IC50) at dynamin 2 is 2600 nM.

As to `COc1cc(-n2c(S)nc3ccccc3c2=O)c(Cl)cc1Cl` [M-divi 1, 3-(2,4-Dichloro-5-methoxyphenyl)-2-sulfanylquinazolin-4(3H)-one], the IC50 with mitochondrial division was 10000 nM.

With `CCCCCCCCCCCCCC[N+](C)(C)C` [MiTMAB, Tetradecyltrimethylammonium bromide], the concentration for half-maximal inhibition (IC50) in data set [1] is 2200 nM.
